{"source": "patent US11938113B2", "about": "“Epigallocathechin gallate solution” (ASSISTANCE PUBLIQUE—HOPITAUX DE PARIS, priority 2017, dated 2024)", "key": {"[1]": {"experiment": "Solubility of EGCG in sucrose solution versus EGCG alone in water", "format": "physicochemical", "conditions": "after 4 hours of dissolution", "from_the_text": "The solubility of EGCG in a solution containing 10% by weight of sucrose is compared to that of EGCG alone in water."}, "[2]": {"experiment": "Stress stability testing (thermal gradient 25 to 135° C., HPLC of residue)", "format": "physicochemical", "conditions": "heating 25 to 135° C. at 5° C. per min", "method": "Both solutions were subjected to progressive heating ranging from 25 to 135° C. at a rate of 5° C. per minute. At end of heating, the residues formed from each solution are illustrated in FIG. 2A and are analyzed by high performance liquid chromatography.\n1 mL of the reference standard suspension and a formulation of the invention disclosed Table 1 before were subjected to a thermal gradient program ranging from 25 to 135° C. at a rate of 5° C. per min. At the end of this exposure, part of each of the residues formed was deposited on a glass slide and the remaining part analyzed by high performance liquid chromatography."}, "[3]": {"conditions": "at normal condition, in water; cited from earlier work"}, "[4]": {"conditions": "after 1-h ultra violet irradiation; cited from earlier work"}}, "note": "Several values for one entry are separate records, joined by “and”; a condition that tells them apart may be missing. Equal values may be shown once. Read-outs that look alike come from different tables or passages of the source."}
{"compound": "O=C(O[C@@H]1Cc2c(O)cc(O)cc2O[C@@H]1c1cc(O)c(O)c(O)c1)c1cc(O)c(O)c(O)c1", "note": "[EGCG, Epigallocatechin gallate]", "values": [{"measurement": "solubility of EGCG", "setting": "[1]", "result": "≤ 5000", "unit": "µg/mL"}, {"measurement": "appearance of residue at the end of heating", "setting": "[2]", "result": "black"}, {"measurement": "chromatographic analysis of residue (EGCG remaining)", "setting": "[2]; HPLC", "result": "practically no more EGCG"}, {"measurement": "solubility of EGCG", "setting": "[3]", "result": "4.6 g/L and 10 mM"}, {"measurement": "decomposition of EGCG", "setting": "[4]", "result": 70, "unit": "%"}]}
